This is an account of results in patent publication US11130741B2 (Bioimics AB, priority 2016, dated 2021).

Values after ≈ are worked out from the molar mass of the structure shown. Structures can show the parent of a compound that is named as a salt. Where two headings read alike, the source gives them in different places.

Experiment [1] has as its system E. coli RNase P RNA, M1 RNA. Put plainly: Inhibition of bacterial RNase P activity, IC50 determination (cleavage of pATSerUG by M1 RNA). It is filed as biochemical. The conditions noted are these: NI = No inhibition.
For experiment [2], the system named is Staphylococcus aureus subsp. aureus (ATCC29213). Briefly: MIC, broth microdilution (CLSI), Staphylococcus aureus subsp. aureus ATCC29213. It is filed as cell-based. The conditions noted are these: ATCC29213, Table 15, read-out: S. aureus ("wound") (MIC). (In general: Dilution methods test growth across graded concentrations, often in twofold steps.)
For experiment [3], the system named is Escherichia coli (ATCC25922). Put plainly: MIC, broth microdilution (CLSI), Escherichia coli ATCC25922.
[4] abbreviates: ATCC25922, read-out: E. coli MIC, Table 15, NI = No inhibition.
Setting [5] is: ATCC25922, read-out: E. coli MIC.

As usually defined, the IC50 is the concentration that inhibits the measured activity by half. Broadly, the MIC is the smallest concentration in the dilution series that meets the test's criterion for growth inhibition. In experiment [1], `CCOC(=O)c1ccc2c(c1)Sc1cc(-c3cc4ccccc4[nH]3)ccc1N2CCCN` [compound 258, ethyl 10-(3-aminopropyl)-7-(1H-indol-2-yl)-10H-phenothiazine-3-carboxylate] returned an IC50 of 24 µM. The results for the MIC in experiment [2] and in experiment [3] (setting [4]) were 2 µg/mL (≈ 4.51 µM) and 128 µg/mL (≈ 289 µM), respectively.

For `NCCCN1c2ccc(N3CCN(CCN)CC3)cc2Sc2cc(C(F)(F)F)ccc21` [compound 266, 3-(3-(4-(2-aminoethyl)piperazin-1-yl)-7-(trifluoromethyl)-10H-phenothiazin-10-yl)propan-1-amine hydrochloride], in experiment [1], half-maximal inhibition (IC50) was put at 31 µM. Moreover, the MIC stood at 16 µg/mL in experiment [2] and 64 µg/mL in experiment [3] (setting [5]).

In turn, `NCCN1CCC(Nc2cc(C(F)(F)F)cc3c2Nc2ncccc2S3)CC1` [compound 268, N-(1-(2-aminoethyl)piperidin-4-yl)-7-(trifluoromethyl)-10H-benzo[b] pyrido[2,3-e] [1,4]thiazin-9-amine] showed an IC50 in experiment [1] of 31 µM. Also, the MIC in experiment [2] amounted to 8 µg/mL (≈ 19.5 µM); in experiment [3] (setting [4]) it was 4 µg/mL (≈ 9.77 µM).

In the case of `N#Cc1ccc2c(c1)Sc1cc(N3CCN(CCN)CC3)ccc1N2CCCN` [compound 292, 7-(4-(2-aminoethyl)piperazin-1-yl)-10-(3-aminopropyl)-10H-phenothiazine-3-carbonitrile trifluoro acetic acid], in experiment [1], the concentration for half-maximal inhibition (IC50) amounted to 140 µM. The MIC was 128 µg/mL (≈ 313 µM) in experiment [2] and greater than 128 µg/mL in experiment [3] (setting [5]).

For the molecule `Cl.Cl.NCCN1CCC(Nc2cc(C(F)(F)F)cc3c2Nc2ccc(C(=O)N4CCCC4)cc2S3)CC1` [compound 293, (9-((1-(2-aminoethyl)piperidin-4-yl)amino)-7-(trifluoromethyl)-10H-phenothiazin-3-yl)(pyrrolidin-1-yl)methanone hydrochloride], the IC50 in experiment [1] was 62 µM. Also, the MIC turned out to be 8 µg/mL in experiment [2] and 16 µg/mL in experiment [3] (setting [4]).

For the molecule `Cl.NC1CCCC(C(=O)Nc2cc(C(F)(F)F)cc3c2Nc2ccc(N4CCCC4)cc2S3)C1` (stereo not drawn) [compound 294, 3-amino-N-(7-(pyrrolidin-1-yl)-3-(trifluoromethyl)-10H-phenothiazin-1-yl)cyclohexane-1-carboxamide hydrochloride], it took 2.4 µM to reach half-maximal inhibition in experiment [1] (IC50). Besides, the MIC was 8 µg/mL in experiment [2] and 64 µg/mL in experiment [3] (setting [4]).

In experiment [1], `CN(C)C1CCN(c2ccc3c(c2)Sc2cc(C(F)(F)F)cc(NC4CCN(CCN)CC4)c2N3)CC1.Cl.Cl` [compound 295, N-(1-(2-aminoethyl)piperidin-4-yl)-7-(4-(dimethylamino)piperidin-1-yl)-3-(trifluoromethyl)-10H-phenothiazin-1-amine hydrochloride] returned an IC50 of 21 µM. The values for the MIC in experiment [2] and in experiment [3] (setting [4]) were 32 µg/mL and 128 µg/mL, respectively.

In turn, `Cl.NCCNCCCNc1cc(C(F)(F)F)cc2c1Nc1ccccc1S2` [compound 297, N1-(2-aminoethyl)-N3-(3-(trifluoromethyl)-10H-phenothiazin-1-yl)propane-1,3-diamine hydrochloride] registered an IC50 in experiment [1] of 43 µM. Also, the MIC is 16 µg/mL in experiment [2] and 32 µg/mL in experiment [3] (setting [4]).

For `CCN(C)c1ccc2c(c1)Sc1cc(C(F)(F)F)cc(NCCCNCCN)c1N2.Cl.Cl` [compound 348, N1-(3-((2-aminoethyl)amino)propyl)-N7-ethyl-N7-methyl-3-(trifluoromethyl)-10H-phenothiazine-1,7-diamine hydrochloride], the minimal inhibitory concentration (MIC) in experiment [2] came out at 4 µg/mL; in experiment [3] (setting [4]), 32 µg/mL.

As to `CC1CC(C)N(c2ccc3c(c2)Sc2cc(C(F)(F)F)cc(NCCCNCCN)c2N3)C1.Cl` (stereo not drawn) [compound 349, N1-(2-aminoethyl)-N3-(7-(2,4-dimethyl-pyrrolidin-1-yl)-3-(trifluoromethyl)-10H-phenothiazin-1-yl)propane-1,3-diamine hydrochloride], the MIC in experiment [2] amounted to 4 µg/mL; in experiment [3] (setting [4]) it was 16 µg/mL.

For `Cl.NCCNCCCNc1cc(C(F)(F)F)cc2c1Nc1ccc(N3CC4CCC3C4)cc1S2` (stereo not drawn) [compound 350, N1-(7-(2-azabicyclo[2.2.1]heptan-2-yl)-3-(trifluoromethyl)-10H-phenothiazin-1-yl)-N3-(2-aminoethyl) propane-1,3-diamine hydrochloride], the minimal inhibitory concentration (MIC) in experiment [2] was 4 µg/mL; in experiment [3] (setting [4]), 8 µg/mL.

Regarding `Cl.NCCNCCCNc1cc(C(F)(F)F)cc2c1Nc1ccc(N3CCC4CCCC43)cc1S2` (stereo not drawn) [compound 351, N1-(2-aminoethyl)-N3-(7-(hexahydro-cyclopenta[b]pyrrol-1(2H)-yl)-3-(trifluoromethyl)-10H-phenothiazin-1-yl)propane-1,3-diamine hydrochloride], the MIC in experiment [2] turned out to be 4 µg/mL; in experiment [3] (setting [4]) it was 16 µg/mL.

Regarding `Cl.NCCN1CCC(Nc2cc(C(F)(F)F)cc3c2Nc2cc(Br)ccc2S3)CC1` [compound 352, N-(1-(2-aminoethyl)piperidin-4-yl)-8-bromo-3-(trifluoromethyl)-10H-phenothiazin-1-amine hydrochloride], the figures for the MIC in experiment [2] and in experiment [3] (setting [4]) were 4 µg/mL and 8 µg/mL, respectively.

For the molecule `NCCNCCCNc1cc(C(F)(F)F)cc2c1Nc1ccc(C3CCCC3)cc1S2` [compound 353, N1-(2-aminoethyl)-N3-(7-cyclopentyl-3-(trifluoromethyl)-10H-phenothiazin-1-yl) propane-1,3-diamine hydrochloride], the MIC amounted to 2 µg/mL in experiment [2] and 8 µg/mL in experiment [3] (setting [5]).

Take `Cl.Cl.NCCN1CCC(Nc2cc(C(F)(F)F)cc3c2Nc2ccc(C4CCCC4)cc2S3)CC1` [compound 354, N-(1-(2-aminoethyl)piperidin-4-yl)-7-cyclopentyl-3-(trifluoromethyl)-10H-phenothiazin-1-amine hydrochloride]: the MIC was found to be 1 µg/mL in experiment [2] and 8 µg/mL in experiment [3] (setting [4]).

For `Cl.NCCNCCCNc1cc(C(F)(F)F)cc2c1Nc1cc(Br)ccc1S2` [compound 355, N1-(2-aminoethyl)-N3-(8-bromo-3-(trifluoromethyl)-10H-phenothiazin-1-yl)propane-1,3-diamine hydrochloride], the figures for the MIC in experiment [2] and in experiment [3] (setting [4]) were 4 µg/mL and 8 µg/mL, respectively.

As for `Cl.NCCN1CCC(Nc2cc(C(F)(F)F)cc3c2Nc2cc(N4CCCC4)ccc2S3)CC1` [compound 356, N-(1-(2-aminoethyl)piperidin-4-yl)-8-(pyrrolidin-1-yl)-3-(trifluoromethyl)-10H-phenothiazin-1-amine hydrochloride], the MIC worked out at 16 µg/mL in experiment [2] and 32 µg/mL in experiment [3] (setting [4]).

In the case of `CC1CC(C)CN(c2ccc3c(c2)Nc2c(NC4CCN(CCN)CC4)cc(C(F)(F)F)cc2S3)C1.Cl` (stereo not drawn) [compound 357, N-(1-(2-aminoethyl)piperidin-4-yl)-8-(3,5-dimethyl-piperidin-1-yl)-3-(trifluoromethyl)-10H-phenothiazin-1-amine hydrochloride], the MIC in experiment [2] worked out at 16 µg/mL; in experiment [3] (setting [4]), 64 µg/mL.

As for `Cl.NCCNCCCNc1cc(C(F)(F)F)cc2c1Nc1ccc(C3=CCCC3)cc1S2` [compound 358, N1-(2-aminoethyl)-N3-(7-(cyclopent-1-en-1-yl)-3-(trifluoromethyl)-10H-phenothiazin-1-yl) propane-1,3-diaminehydrochloride], the MIC in experiment [2] and in experiment [3] (setting [4]) was 16 µg/mL throughout.

For the molecule `Cl.NCCN1CCC(Nc2cc(C(F)(F)F)cc3c2Nc2ccc(C4=CCCC4)cc2S3)CC1` [compound 359, N-(1-(2-aminoethyl)piperidin-4-yl)-7-(cyclopent-1-en-1-yl)-3-(trifluoromethyl)-10H-phenothiazin-1-amine hydrochloride], the minimal inhibitory concentration (MIC) in experiment [2] is 16 µg/mL; in experiment [3] (setting [4]) it was 64 µg/mL.
